Values after ≈ are worked out from the molar mass of the structure shown. Ends that are not written are not given here.
Columns and labels:
[1] = test system: Escherichia coli (ATCC 25922); assay: microbe, parasite or virus in culture; assay type: cell-based
Method: (§1) Minimum inhibition concentrations (MICs) were determined against Escherichia coli (ATCC 25922), Staphylococcus aureus (ATCC 25923), Klebsiella pneumoniae (ATCC 10031) and Pseudomonas aeruginosa (ATCC 27853). Also clinical strains of E. coli, K. pneumoniae, E. cloacae, P. aeruginosa, Serratia marcescens, Proteus mirabilis, S. pneumoniae, Acinetobacter baumannii, A. johnsonii and S. aureus were used for MICs assays. Additionally, clinical strains of yeast including Candida albicans, C. glabrata, C. parapsilosis and C. quillermondiae were used. The susceptibility of these microorganisms to Chain peptides were determined using micro broth dilution assay. Colonies of the respective microorganism from Muller Hinton (MH) agar plates incubated overnight were suspended in MH broth media and final concentration of microorganism was adjusted to 5.0×10^5 cfu/ml. An aliquot of 10 μl of each Chain peptide, or gentamicin, tetracycline as reference antibiotics were added in differing concentrations along with 90 μl of bacterial suspension to 96 well polypropylene plates and incubated at 37° C. for 20 to 24 hours. Concentrations of Chain peptides and reference antibiotics ranged from 0.125 to 128 μg/ml and the MICs were recorded as the lowest concentration with no visual growth of bacteria. Similarly, antifungal MICs were tested in Potato dextrose broth.

[2] = test system: Klebsiella pneumoniae (ATCC 10031); assay: microbe, parasite or virus in culture; assay type: cell-based
Method: as §1

[3] = test system: Pseudomonas aeruginosa (ATCC 27853); assay: microbe, parasite or virus in culture; assay type: cell-based
Method: as §1

[4] = test system: Staphylococcus aureus (ATCC 25923); assay: microbe, parasite or virus in culture; assay type: cell-based
Method: as §1

[5] = test system: Candida albicans clinical strains; assay: MIC, clinical yeast strains; assay type: cell-based; set-up: unit: μg/ml
Method: as §1
(§2) Clinical strains of yeasts including Candida albicans, C. glabrata, C. parapsilosis and C. quillermondiae were also tested with the 12 Chain peptides. The minimum inhibitory concentration (MICs) varied between these peptides and are presented in Tables 4a, 4b, 4c and 5a, 5b, 5c. Peptides Chain 105, 201 and 308 are broad spectrum antimicrobials with MICs between 0.5-32 μg/ml against all the bacteria and yeasts tested, except Serratia marcescens and Proteus mirabilis, against which the MICs were between 64-128 μg/ml. Peptide Chain 306 has narrow spectrum activity against E. coli at 1 μg/ml and for the rest of the bacterial strains at >32 μg/ml (FIG. 10c).

[6] = test system: C. glabrata clinical strains; assay: MIC, clinical yeast strains; assay type: cell-based, Candida glabrata; set-up: unit: µg/ml
Method: as §1, §2

[7] = test system: C. parapsilosis clinical strains; assay: MIC, clinical yeast strains; assay type: cell-based, Candida parapsilosis; set-up: unit: µg/ml
Method: as §1, §2

[8] = test system: C. quillermondiae clinical strains; assay: MIC, clinical yeast strains; assay type: cell-based, Candida quillermondiae; set-up: unit: μg/ml; conditions: C. quillermondiae clinical yeast strain 1
Method: as §1, §2

| Compound | Minimum inhibitory concentration, Escherichia coli (ATCC 25922) [1] [µg/mL] | Minimum inhibitory concentration, Klebsiella pneumoniae (ATCC 10031) [2] [µg/mL] | Minimum inhibitory concentration, Pseudomonas aeruginosa (ATCC 27853) [3] [µg/mL] | Minimum inhibitory concentration, Staphylococcus aureus (ATCC 25923) [4] [µg/mL] | further results |
| --- | --- | --- | --- | --- | --- |
| KKRLHRKRLRK [Chain102] | >128 | >128 | >128 | >128 |  |
| KRIVRWRTRKR [Chain205] | 64 | >128 | >128 | >128 |  |
| IWKRFRLFKKR [Chain303] | 64 | >128 | >128 | >128 |  |
| KIRLHRKRLRK [Chain101] | >128 | >128 | >128 | >128 |  |
| WWRLHAKRKLW [Chain108] | >128 | >128 | >128 | >128 |  |
| KRIVRWRWRKR [Chain206] | 16 | >128 | >128 | >128 |  |
| WRKWFWLFKKR [Chain309] | 32 | 64 | 8 | 32 |  |
| RRIVKLRWFKR [Chain203] | 32 | >128 | >128 | >128 |  |
| WRIVQWRKLKR [Chain210] | >128 | >128 | >128 | >128 |  |
| WRIVRWRKLKR [Chain209] | 64 | >128 | >128 | >128 |  |
| IWKRFRLFKKW [Chain304] | 16 | 64 | 8 | 32 |  |
| RLKWFWLRKLK [Chain305] | 128 | 64 | 16 | 64 |  |
| RKIVKKRTFKR [Chain202] | >128 | >128 | 1 | >128 |  |
| KLKWFWLFKKR [Chain311] | 16 | 32 | 8 | 32 |  |
| KLKKFKLFKKR [Chain312] | >128 | >128 | >128 | >128 |  |
| CN(C)[C@@H]1C(O)=C(C(N)=O)C(=O)[C@@]2(O)C(O)=C3C(=O)c4c(O)cccc4[C@@](C)(O)[C@H]3C[C@@H]12 [Tetracycline, reference compound] |  |  |  |  | MIC ([1]; Escherichia coli, ATCC25922, read-out: Minimum inhibitory concentration, Escherichia coli (ATCC 25922)): 8 µg/mL (≈ 18 µM); MIC ([2]; Klebsiella pneumoniae, ATCC10031, read-out: Minimum inhibitory concentration, Klebsiella pneumoniae (ATCC 10031)): 2 µg/mL (≈ 4.5 µM); MIC ([3]; Pseudomonas aeruginosa, ATCC27853, read-out: Minimum inhibitory concentration, Pseudomonas aeruginosa (ATCC 27853)): 32 µg/mL (≈ 72 µM); MIC ([4]; Staphylococcus aureus, ATCC25923, read-out: Minimum inhibitory concentration, Staphylococcus aureus (ATCC 25923)): 2 µg/mL (≈ 4.5 µM) |
| WIRLHWKRLRK [Chain106] | >128 | >128 | 64 | >128 |  |
| KRIVRWRKLKRK [Chain207] | >128 | >128 | >128 | >128 |  |
| WRILRWRKLKR [Chain208] | 32 | >128 | 32 | >128 |  |
| C[C@@H]1[C@H](O)[C@@H](C)/C=C/C=C/C=C/C=C/C=C/C=C/C=C/[C@H](O[C@@H]2O[C@H](C)[C@@H](O)[C@H](N)[C@@H]2O)C[C@@H]2O[C@](O)(C[C@@H](O)C[C@@H](O)[C@H](O)CC[C@@H](O)C[C@@H](O)CC(=O)O[C@H]1C)C[C@H](O)[C@H]2C(=O)O [Amphotericin B] |  |  |  |  | Minimum inhibitory concentration ([5]; Candida albicans clinical yeast strain 1): 2; Minimum inhibitory concentration ([5]; Candida albicans clinical yeast strain 2): 0.5; Minimum inhibitory concentration ([5]; Candida albicans clinical yeast strain 3): 2; Minimum inhibitory concentration ([5]; Candida albicans clinical yeast strain 4): 2; Minimum inhibitory concentration ([5]; Candida albicans clinical yeast strain 5): 2; Minimum inhibitory concentration ([6]; C. glabrata clinical yeast strain 1): 4; Minimum inhibitory concentration ([6]; C. glabrata clinical yeast strain 2): 4; Minimum inhibitory concentration ([6]; C. glabrata clinical yeast strain 3): 2; Minimum inhibitory concentration ([6]; C. glabrata clinical yeast strain 4): 4; Minimum inhibitory concentration ([7]; C. parapsilosis clinical yeast strain 1): 2; Minimum inhibitory concentration ([7]; C. parapsilosis clinical yeast strain 2): 2; Minimum inhibitory concentration ([7]; C. parapsilosis clinical yeast strain 3): 2; Minimum inhibitory concentration ([7]; C. parapsilosis clinical yeast strain 4): 2; Minimum inhibitory concentration [8]: 2 |
| IIKRFRLFKKL [Chain301] | 64 | >128 | 64 | >128 |  |
| ILKRWWLFKKL [Chain302] | >128 | >128 | 16 | 128 |  |
| WWRLHAKKKLW [Chain107] | 64 | >128 | >128 | >128 |  |
| RLKRFRLFRKRK [Chain313] | 32 | >128 | 64 | >128 |  |
| YDKGFGLFKKM [Chain300] | >128 | >128 | >128 | >128 |  |
| DCWSAMIRLHAKYNQV [Chain100] | >128 | >128 | >128 | >128 |  |
| KLRLHAKRLRK [Chain103] | >128 | >128 | >128 | >128 |  |

Source: patent US10457709B2, “Antimicrobial peptides, their variants and uses” (priority 2015, dated 2019)
